Measured values published in US10889812B2, “Short non-coding protein regulatory RNAs (sprRNAs) and methods of use” (University of Maryland, Baltimore, priority 2014, dated 2021).

How the values were obtained:
[1] = test system: cleaved PARP; assay: Western blot of cleaved PARP in CDDP treated SCC cells; type: cell-based, human; details: pre-treated SCC cells plus CDDP, vs Scr
Description: (§1) Primary antibodies used were: anti-Moesin (1:1,000, Clone Q480, Catalog No. 3150, Cell Signaling), anti-p-ERM (Clone 41A3, Catalog No. 3149, Cell Signaling), anti-Moesin (Clone 38/Moesin, Catalog No. 610401, BD Transduction Laboratories), anti-p-Moesin (Thr558, Catalog No. 12895, Sanra Cruz), anti-β-actin (1:5,000, Catalog No. A228, Sigma-Aldrich), anti-EBP50 (1:100, Clone 6/EBP50, Catalog No. 61160, BD Transduction Laboratories), anti-F-actin (1:100, Clone NH3, Catalog No. MA1-80729, Thermor Fisher), anti-p-Wee 1 (Se53, 1:1000, Catalog No. sc-130223, Sanra Cruz), anti-Wee 1 (C-20, 1:1000, Catalog No. sc-325, Sanra Cruz), anti-p-Cdc2 (Tyr15, 1:1000, Catalog No. 9111, Cell Signaling), anti-p-Cdk (Thr14/Tyr15-R, 1:1000, Catalog No. sc-28435-R, Sanra Cruz), anti-Cdc2 p34 (H-297, 1:1000, Catalog No. sc-747, Sanra Cruz), anti-p-Cdc25C (Ser198, 1:1000, Catalog No. 9529, Cell Signaling), anti-CDK2 (78B2, 1:1000, Catalog No. 2546, Cell Signaling), anti-p-Histone H2AX (Ser139, 20E3, :1000, Catalog No. 9718, Cell Signaling), and anti-GFP (N-terminal, 1:4000, Catalog No. G1544, Sigma). Secondary antibodies used were: Goat anti-Mouse (1:2,500, Catalog No. 31160, Pierce), and Goat anti-Rabbit (1:2,500, Catalog No. 31460, Pierce). Cells were lysed in RIPA buffer (Sigma) on ice after washed in PBS twice, centrifuge at 160,000×g for 10 min at 4° C. […]

[2] = test system: SCC cells; assay: Annexin V staining assay, CDDP-induced apoptosis; type: cell-based, human; details: pre-treated SCC cells, vs Scr pre-treated
Description: (§2) To determine if the increased piR-L-138 plays a functional role in CDDP treated SCC cells, we used DNA antisense oligos of piR-L-138 (Ant-138) to block piR-L-138 in H157 and SKMES-1 cells. Six hours after Ant-138 treatment, we treated the cells with CDDP (IC25 dose).

[3] = test system: H157 and SKMES-1 cells; assay: Flow cytometry, sub-G1 phase after CDDP; type: cell-based, human; details: Ant-138 then CDDP (IC25 dose) six hours later, vs Scr
Description: Cell cycle distribution was analyzed by Flow Cytometry (Becton-Dickinson). Cells were synchronized in growth factor-free Keratinocyte-SFM with 2 mM Thymidine (Catalog No. T1895, Sigma-Aldrich) for 24 hrs. Transfection is performed using Lipofectamine™ RNAiMAX (Invitrogen) according to its manual, and the final concentration of annealed oligo RNAs is 400 nM. Four hour after transfection, culture medium was replaced by complete Keratinocyte-SFM supplemented with L-Glutamine, prequalified human recombinant EGF 1-53 and BPE. Cells were harvested at different time points, washed in phosphate-buffer saline (PBS), fixed with ice-cold 70% ethanol, and strained in PI/RNase solution (BD Pharmigen). The samples were analyzed on a FACScan flow cytometer in combination with BD lysis software (Becton-Dickinson).
as §2

[4] = test system: H157 tumor xenograft; assay: H157 tumor xenograft model, intra-tumor injection of Ant-138 with CDDP; type: in vivo, mice
Description: To further validate the interaction between piR-L-138 and MDM2 at the individual cell level, we performed fluorescence in situ hybridization (FISH) assay using a digoxin (DIG)-labelled RNA probe complimentary to piR-L-138 and an anti-MDM2 antibody. We first tested the probes in HBE4 cells which express high levels of piR-L-138 to ensure the sensitivity and specificity of the piR-L-138 probe and MDM2 antibody (FIG. 16c). […] This is consistent with the observed up-regulation of piR-L-138 in SCC cells upon CDDP treatment and the interaction between piR-L-138 and MDM2. Next, we used H157 tumor xenograft model to determine if targeting piR-L-138 can enhance CDDP-mediated tumor cell apoptosis in SCC in vivo. In this proof of principle experiment, we used intra-tumor injection of Ant-138 (SEQ ID NO:556) which was formulated with MaxSuppr in vivo RNALancerll as described previously (Wiggins J F, et al. Development of a Lung Cancer Therapeutic Based on the Tumor Suppressor MicroRNA-34. Cancer Res. 70, 5923-30(2010)) due to the requirement of very large quantity of formulated reagents needed for systemic delivery. […] Since we were using local injection with sub-optimal dose, such modest anti-tumor activity was expected. We were focusing on determining if Ant-138 increased apoptosis at the sites of injection by analyzing tumor tissue sections for cleaved caspase 3 as an indicator of apoptosis and Ant-138.

[5] = test system: H157 and SKMES-1 cells; assay: MTT assay, cell killing by CDDP after Ant-138; type: cell-based, human; details: Ant-138 then CDDP (IC25 dose) six hours later, vs Scr pre-treated
Description: Cell viability and cell growth curve assay were determined by MTT assay and trypan blue exclusion assay, respectively as described previously (Kirino, Y. & Mourelatos, Z. Mouse Piwi-interacting RNAs are 2′-O-methylated at their 3′ termini Nat Struct Mol Biol. 14, 347-348 (2007)). BrieflySpecifically, MTT (5 mg/ml) was added into cells and incubated at culture condition for 3 hours, removed the medium carefully and dissolved formazan in DMSO, assay was used to assess the surviving cells and OD values were measured using Microplate Reader Manager (Bio Rad) at wavelengths of 570/690 nm. For trypan blue exclusion assay, cells were washed in PBS for three times, and dyed in 0.4% tyrpan blue solution. Unstained viable cells were counted in hemocytometer chamber under microscope. Each experiment was performed three times independently.
as §2

[6] = test system: MDM2; assay: Western blot of MDM2 cleavage and phosphorylation in SCC cells; type: cell-based, human; details: SCC cells pre-treated, upon CDDP treatment
Description: as §1, with “C. Protein in supernatant was qualified using BCA™ protein assay kit (Thermo Scitific) and denatured in SDS loading buffer in boiling water, run 10% SDS-PAGE gel and transferred to nitrocellulose membrane (Thermo Scitific).” for “C.”
Next, we wanted to explore potential mechanism of piR-L-138-mediated apoptosis inhibition in CDDP treated lung SCC cells. We first analyzed cleaved PARP, a protein marker indicative of apoptosis, and found it was increased in the SCC cells pre-treated with Ant-138 compared with Scr pre-treated cells (FIG. 15d). As both of the SCC cell lines harbor p53 mutations, we analyzed mouse double minute 2 homolog (MDM2) which has been implicated in apoptosis including p53-independent pathway (Bohlman S, Manfredi J J. p53-independent effects of Mdm2. Subcell Biochem. 85,235-46 (2014); Bouska A, Eischen C M. Mdm2 affects genome stability independent of p53. Cancer Res. 69, 1697-701 (2009); Zhang, Z., Li, M., Wang, H., Agrawal, S., and Zhang, R. Antisense therapy targeting MDM2 oncogene in prostate cancer: Effects on proliferation, apoptosis, multiple gene expression, and chemotherapy. Proc. Natl. Acad. Sci. 100, 11636-11641 (2003); Zhang Z, Wang H, Li M, Agrawal S, Chen X, Zhang R. MDM2 Is a Negative Regulator of p21WAF1/CIP1, Independent of p53. […]

[7] = test system: lung SCC cell lines; assay: MTT cell viability after DNA oligo blocking 5 sprRNAs; type: cell-based, human; details: twenty-four hours after treatment, 4 lung SCC cell lines
Description: (§3) To test the potential impact of the candidate sprRNAs identified by phosphor-protein binding in the phosphorylation status of the proteins, we selected a panel of 5 sprRNAs with sizes ranging from 25-50 nt but sharing a common 25 nt sequence and used DNA oligo complementary to the common sequence (5′-[…]-3′) (SEQ ID NO:489) to block these sprRNAs.

[8] = test system: phosphor-proteins; assay: Western blots of phosphorylated proteins (p-Tyrosine, p-Theronin/Serine); type: cell-based, human; details: lung SCC cells treated with the DNA oligo
Description: as §3

[9] = test system: LAMC2; assay: LAMC2 expression by real time RT-PCR in HBE4 cells; type: cell-based, human
Description: FIG. 11. Expression of piR-L-163 in NSCLC and HBE cell lines measured by real time RT-PCR. (a) piR-L-163 expression levels in individual cell lines. (b) piR-L-163 express ion levels in HBE, ADC and SCC as groups. All the values are averages of four independent replicates, error bars represent mean s.d., and * indicates p<0.01 by Student's t-test. (c) LAMC2 express ion levels in HBE4 cells measured by real time RT-PCR in the conditions as labeled. Values are averages of three independent replicates, error bars represent mean s.d., and ** indicates p<0.05 by Student's t-test.
We then wanted to determine whether piR-L-163 (SEQ ID NO:282) plays a functional role in human bronchial epithelial cells. We treated HBE4 cells as well as primary normal human bronchial epithelial (NHBE) cells with piR-L-163 complementary DNA oligonucleotides (Ant-163) (SEQ ID NO:496) or RNA oligonucleotides (Ant-163R) (SEQ ID NO:497) in the experiment. […] Cell cycle distributions were measured every 2 hrs.

Ant-138: DNA sequence that is antisense to piR-L-138, SEQ ID NO:556 (antisense AGGTCTCAGAGTAATTCTAGAGCTAAAGT; listed as DNA, chemistry not given here)
cleaved PARP [1]: increased | sensitivity to CDDP-induced apoptosis (annexin V) [2]: more sensitive to CDDP-induced apoptosis | proportion of the sub-G1 phase [3]: substantially increased proportion of the sub-G1 phase | caspase 3 positive tumor cells by Ant-138 level (immunofluorescence) ([4]; tumors treated with CDDP and Ant-138): significantly concentrated caspase 3 positive tumor cells in areas with high levels of Ant-138 | tumor size ([4]; with CDDP, intra-tumor injection, vs untreated and CDDP plus Scr): smaller but the difference was only border line statistically | expression of cleaved caspase 3 in tumors ([4]; with CDDP, vs CDDP and Scr control): higher expression of cleaved caspase 3 | cell killing (MTT) [5]: significantly increased cell killing | MDM2 cleavage [6]: substantially reduced MDM2 cleavage | serine-166 phosphorylation in the cleaved MDM2 [6]: increase of serine-166 phosphorylation in the cleaved MDM2

DNA oligo complementary to the common sequence: DNA sequence antisense to SEQ ID NO:489 (AntiC, SEQ ID NO:558), blocks 5 sprRNAs sharing a common 25 nt sequence (antisense CGAACCCGGGCCGCGGCGGTGAGA; DNA, backbone and methylation of C not given here)
cell viability (MTT) [7]: significant growth inhibition | levels of phosphorylated proteins [8]: changes of levels in certain phosphor-proteins

Ant-163R: piR-L-163 complementary RNA oligonucleotides, SEQ ID NO:497 (antisense GGUCAGAGAAUCAAAGUAACAUCAUGAUAU; listed as RNA, chemistry not given here)
expression levels of LAMC2 [9]: reduced expression levels of LAMC2
